Assay results published in patent publication US12661404B2, “Methods and materials for tissue ablation” (Mayo Foundation for Medical Education and Research, priority 2020, dated 2026).
Like-named read-outs stand apart in the source and are kept apart here.

What was measured:
[1] = system: human hepatocellular carcinoma (Hep-G2) cells; conditions: Hep-G2, 24 hours incubation, WST-1
Procedure: HepG2 human liver cancer cell line (ATCC CRL10741; American Type Culture Collection, Manassas, VA, USA) were cultured in 75 cm^2 flasks using growth medium consisting of low glucose Dulbecco's Modified Eagle Medium (DMEM, ThermoFisher) and 10% heat-inactivated bovine serum that was supplemented with 100 IU penicillin and 10 μg/mL streptomycin (Thermo Fisher Scientific). […] The anticancer activity of LATTE on HepG2 was determined using WST-1 reagent (2-(4-Iodophenyl)-3-(4-nitrophenyl)-5-(2,4-disulfophenyl)-2H-tetrazolium sodium) assay as an indication of viability/cytotoxicity treatment. WST-1 viability assay is based on the reduction of tetrazolium salt, WST-1 to an insoluble formazan dye by electron transport across the plasma membrane in viable cells that alter the optical density of the media. […] Cell viability was calculated relative to control wells that received the growth medium alone.
All reported values are the means of three replicate experiments with each study having 8 wells per dose level. Plots of the log concentration versus fractional viability for each drug were generated for each study.

[2] = system: freshly resected human tumors; conditions: 25%-LATTE mixed with ICG, 24 hours at 37° C., 12 tumors
Procedure: The fluorescent intensity and diffusion area were calculated using similar parameters for all tissues. […] LATTE was able to ablate a variety of highly malignant human tumors.
Explanted human cancer tissues were collected following surgical resection and placed in RPMI medium for preservation. […] Near-infrared fluorescent imaging (NIRF) was performed at 5 minutes after injection. […] Tissues were transected to reveal the ablated zone were fixed in 10% buffered formalin, embedded in paraffin, then sectioned and subsequently stained with hematoxylin and eosin for microscopic evaluation.

[3] = system: fat cells (adipocytes); experiment: Explanted pig fat tissue incubated with LATTE; conditions: after 1 hour in LATTE solution
[4] = system: subcutaneous fat tissue; conditions: 25% LATTE mixture subcutaneous
Procedure: Additional experiments were performed on explanted fat tissue obtained from the groin area from pig in a petri dish submersed in saline (FIG. 10).

[5] = system: N1S1 liver tumors; experiment: Intratumoral injection of LATTE in N1S1 rat model of liver cancer; type: in vivo
Procedure: All procedures were approved by the institutional animal care and use committee and performed according to institutional guidelines. […] N1S1 cells were maintained in suspension in a 75 cm^2 culture flasks at 37° C. in a 5% CO2 humidified chamber. […] To prepare the cells for inoculation, N1S1 cell aliquots were rinsed and suspended in plain IMDM (without antibiotics or serum) to yield 2×10^6 cells in 100 μL of fresh aliquots for each inoculation. The rat liver was surgically exposed through upper midline laparotomy under isoflurane anesthesia followed by subcapsular inoculation of N1S1 cells into the left liver lobe. Gentle compression with gauze for hemostasis was used to prevent cell reflux. The abdominal incision was closed using interrupted Vicryl sutures for abdominal muscle and subcuticular suture for the skin, followed by the application of Vetbond tissue adhesive (3M, St. Paul, MN) followed by recovery from anesthesia. Intratumoral injection of the ionic liquid mixture was performed in three groups of rats bearing 0.5 cm^3 N1S1 tumor lesions measured with ultrasound. […] All solutions contained 0.25 mg/mL indocyanine green (ICG, Sigma-Aldrich, St. Louis, MO) solubilized in normal saline. Following intratumoral injections, treated rats were allowed to survive for 2 weeks after treatment, and tumor volume was documented using ultrasound. N1S1 tumor progression and treatment response was assessed using percutaneous ultrasonography. Selected focal zone depth, gain, and tissue harmonic settings were optimized during the acquisition of the initial imaging at baseline, and the same parameters were applied during acquisition after intratumoral injection of LATTE mixture. Serial ultrasound examinations were performed on rat livers following N1S1 inoculation to confirm tumor formation and assess tumor volume. Rats were anesthetized using a gas mixture of 2-3% isoflurane in 100% oxygen via a nose cone. Rats were secured in a supine position on an electronically controlled warming platform to maintain the temperature at 37° C. during the imaging procedure. The abdominal area was shaved and prepped with depilatory cream (Nair, Church& Dwight Co. INC). Initially, abdominal sonography was performed to delineate tumor mass boundaries in grayscale (B-mode) using ACUSON 52000 system (Siemens Inc., Germany) and a multi-frequency linear transducer (9L4, 9.0 MHz). The transducer was positioned to obtain 2D scans via the subcostal window to document liver tumors and measure lesion diameter. […] Tumor volumes were calculated as following: V=(4/3)×π×(1/2) SI×(1/2)LM×1/2 AP. Color Doppler images were also acquired to detect the distribution of the tumor blood flow weekly.
To visualize normal liver parenchyma on CT imaging, rats received a bolus injection of 400 μL of the alkaline earth metal-based nanoparticle suspension, Exitron nano 12000 (Miltenyi Biotec, Auburn, CA) two hours prior to micro-CT scanning. Rats were anesthetized using inhalation of 2-3% isoflurane in 100% 02 at a constant flow rate of 2 L/minute and placed on a cassette equipped with a warming system and continuous gas exchange and integrated real-time motion detection camera. Fixed rat tissues were placed and immobilized using styrofoam beads inside a humidified plastic chamber. […] The 3D image stacks were reconstructed using NRecon software and InstaRecon CBR Server (version: 1.7.4.6, Bruker, Kontich, Belgium) following adjustment of random movements, beam-hardening correction, and ring artifact reduction and smoothing. 3D volume rendering was visualized using CTVox software (version: 3.3. 0 r1383, Bruker, Kontich, Belgium). The stacks were virtually rotated and axially oriented to yield transverse projections of select volume of interest (VOI) using Data Viewer software (Bruker, Kontich, Belgium).

[6] = system: cardiac muscle; conditions: 1 cc with ICG, 1 hour
Procedure: FIGS. 14A-14B. Effect of an ablation agent on pig heart tissue. FIG. 14A. In a living Yorkshire pig weighing 50-55 kg, a syringe connected to a 21 gauge 7 cm needle was guided through the skin into the myocardium using hand-held ultrasound guidance. […] FIG. 14B.
Pig heart tissue septum received 1 cc injection of LATTE mixture with ICG under ultrasound guidance. Cardiac muscle was removed after 1 hour for near-infrared imaging (NIRF) and histology was performed.

[7] = system: pig blood cells
Procedure: (§1) The effect of IL on coagulation and cell death in blood was evaluated in vitro. To evaluate the effect of cell death along the margins of the ablation zone, specifically on the effect of IL on inflammatory cells, blood treated with low concentrations of IL was used to simulate concentrations along the ablation margins. To analyze the effect of the ionic liquid on blood coagulation, RBC hemolysis, and immune cells, analyses including rheometry, hemolyses assay, complete blood counts were performed on blood smears following incubation of pig blood aliquots with various concentrations of IL.

[8] = system: pig blood
Procedure: as §1

Substance: choline-geranate [LATTE]
- effective dose (EC50), fractional cell viability [1]: 0.19%
- tumor tissue histology [2]: marked tissue destruction
- fat depletion from adipocytes [3]: fat was depleted
- adipocyte ablation in treated zone (histology) [4]: complete ablation of the adipocytes
- tumor volume by micro-CT vs saline ([5]; 2 weeks post-treatment): substantially smaller tumor volumes
- tumor size on gray-scale US, smaller than saline injected group ([5]; 25%-LATTE intratumoral, two weeks): 5 fold
- CD68-expressing macrophages, increase ([5]; tumor sections, two weeks): 16 fold
- number of apoptotic (cleaved Caspase-3) cells, higher than saline group ([5]; tumor sections, two weeks): 24 fold
- treatment response on micro-CT review by radiologist, size criteria ([5]; two weeks): complete treatment response
- tumor histology (H&E) ([5]; two weeks): complete tumor necrosis
- morphometric analysis of tumor size and cell count ([5]; two weeks, vs saline): significant reduction in tumor size and cell count
- proliferating (PCNA) cells ([5]; two weeks, vs saline): markedly reduced number of proliferating cells
- CD3+ T-lymphocyte infiltration ([5]; within treated tumor margin, two weeks): enhanced CD3+T-lymphocyte infiltration
- cardiac muscle histology at injected site [6]: marked ablation of the cardiac myofibers
- red blood cells (RBC) total count ([7]; 0.78, 1.56, 3.12 wt % IL): concentration dependent decrease
- white blood cells (WBC) total count ([7]; 0.78, 1.56, 3.12 wt % IL): concentration dependent decrease
- lymphocyte count ([7]; 0.78, 1.56, 3.12 wt % IL, compared to control): no change in lymphocyte count
- hemolysis test ([7]; 0.78-25 wt % IL): significant increase in hemolysis
- hemolysis on stained blood smears ([7]; 3.12 wt % IL): complete hemolysis
- blood coagulation initiation lag time (tlag) ([8]; 0.78% IL): slight increase in lag time
- decrease in storage modulus (G′) at 30 minutes ([8]; 0.78% IL): ~20%
- blood coagulation initiation lag time (tlag) ([8]; 1.56 wt % IL): significantly extended lag time
- drop in storage modulus (G′) at 30 minutes ([8]; 1.56 wt % IL): 95%
- coagulation during 30 minutes testing period ([8]; 3.12 wt % IL): failed to coagulate
- decrease in storage modulus (G′) at 30 minutes ([8]; 3.12 wt % IL): 100 wt %
